Test results reported in US20020177616A1, “Use of chromans” (priority 2001, published 2002).
Structures can show the parent of a compound that is named as a salt.

Columns and labels:
[1] = biological target: T1, human recombinant 5-HT1A receptors (Homo sapiens, UniProt P08908); assay: GTP gamma[S-35] binding, agonistic action on human recombinant 5-HT1A receptors; assay type: biochemical; conditions: for EC50: GTP gamma[S-35] binding, human recombinant 5-HT1A receptors
T1 sequence (P08908 1-422): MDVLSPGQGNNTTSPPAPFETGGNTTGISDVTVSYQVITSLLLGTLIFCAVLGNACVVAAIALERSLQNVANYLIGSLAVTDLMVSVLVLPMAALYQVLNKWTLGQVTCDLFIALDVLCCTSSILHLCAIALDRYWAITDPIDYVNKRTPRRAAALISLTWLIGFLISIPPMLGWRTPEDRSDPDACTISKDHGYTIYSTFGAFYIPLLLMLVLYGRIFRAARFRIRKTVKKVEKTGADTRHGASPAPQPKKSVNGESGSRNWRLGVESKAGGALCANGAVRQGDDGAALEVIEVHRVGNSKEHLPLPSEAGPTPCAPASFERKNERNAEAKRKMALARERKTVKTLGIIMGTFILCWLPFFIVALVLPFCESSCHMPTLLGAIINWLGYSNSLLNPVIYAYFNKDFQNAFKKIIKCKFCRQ
Experimental: Determination of the Avonistic action on Human Recombinant 5-HT1A Receptors
Signal transduction studies were carried out on human recombinant 5-HT1A receptors using the guanosine 5′-O-(3-[S-35]thio)-triphosphate (GTP gamma[S-35]) binding technique (modified according to Elliott and Reynolds Europ J. Pharmacol 1999, 386, 313-315 and Sim et al. J. Neurosci 1996, 16, 8057-8066).

[2] = test system: MPTP-monkey model; assay: chronic MPTP monkey model of Parkinson's disease; assay type: in vivo, rhesus monkeys (Macaca fascicularis); parameters: key to Slowing of the development of Parkinsonism: 0 = No slowing of the development of parkinsonism; + = Statistically significant delay in the attainment of Score 8; conditions: for Symptomatology on the last 3 days: MPTP only group = 100%

| SMILES | potency relative to repinotan hydrochloride ([1]; 5-HT1A agonism, from EC50 values) | EC50 [1] [pM] | neuroprotective activity after oral administration ([2]; 1 mg/kg p.o. bid) | reduction of the degree of severity of the symptoms (symptomatic action) compared with control ([2]; 1 mg/kg p.o. bid) [%] | Slowing of the development of Parkinsonism ([2]; MPTP 0.2 mg/kg i.v. daily + 1.0 mg/kg p.o. bid) | Symptomatology on the last 3 days ([2]; MPTP + 1.0 mg/kg p.o. bid) [%] | neuroprotective activity after oral administration ([2]; 2 mg/kg p.o. bid) | symptomatic action ([2]; 2 mg/kg p.o. bid) | Slowing of the development of Parkinsonism ([2]; MPTP 0.2 mg/kg i.v. daily + 2.0 mg/kg p.o. bid) | Symptomatology on the last 3 days ([2]; MPTP + 2.0 mg/kg p.o. bid) [%] |
| --- | --- | --- | --- | --- | --- | --- | --- | --- | --- | --- |
| CC(C)Oc1cccc2c1O[C@@H](CNCCCCN1C(=O)c3ccccc3S1(=O)=O)CC2 [Example 11, 2-[4-({[(2R)-8-isopropoxy-chroman-2-yl]methyl}amino)butyl]-1,2-benzisothiazol-3(2H)-one 1,1-dioxide hydrochloride] | approximately twice | 190 | slowed the development of the parkinsonism symptoms | 22 | + | 78 |  |  |  |  |
| Cl.O=C1c2ccccc2S(=O)(=O)N1CCCCNC[C@H]1CCc2ccccc2O1 [Repinotan hydrochloride, 2-[4-({[(2R)-chroman-2-yl]methyl}amino)butyl]-1,2-benzisothiazol-3(2H)-one 1,1-dioxide hydrochloride, reference compound] |  | 510 |  |  |  |  | slowed the development of the parkinsonism symptoms | not observed | + | 100 |
